From patent publication US20230365616A1, “CHOLESTANE DERIVATIVES, PREPARATIONS CONTAINING THESE DERIVATIVES AND USE THEREOF” (UNIVERZITA PALACKEHO V OLOMOUCI, priority 2020, published 2023)

Tests used:
[1] = test system: neuron-like SH-SY5Y cells; assay: Glutamate-induced oxidative stress, superoxide radical formation by dihydroethidium staining; assay type: cell-based, human; conditions: 4 hour co-treatment with 160 mM Glu, percentages of 160 mM Glu control, mean of three independent experiments
Description: Similarly as shown in previous assay, cells grew on 96 multiwell plates at density 20000 cells per well underwent differentiation and treatment procedure for glutamate model. After 4 hour co-treatment with glutamate superoxide radical's formation as marker of oxidative stress was quantified by dihydroethidium according to Kim et al. 2017, J. Med. Food, 20, 140-151 with modifications. Briefly, neuron-like SH-SYSY cells were centrifuged at 500 g for 5 minutes and 30 seconds, then media were replaced by 10 μM DHE PBS solution and kept at room temperature for 30 minutes. After 30 minutes, DHE was read at 500 nm/580 nm (excitation/emission) by Infinite M200 Pro (Tecan) microplate reader. DHE is cell permeable dye which is selective toward superoxide radical detection. Overall oxidative stress achieved by 160 mM Glu was consider as 100% so that the reduction in oxidative stress (OS reducing effect) was observed. As shown in Table 6 and FIG. 2, 160 mM Glu induced 2.6 fold increase in superoxide radical's formation.

[2] = test system: SH-SY5Y human neuroblastoma cell line (neuron-like phenotype); assay: Calcein AM viability test on ATRA-differentiated neuron-like SH-SY5Y cells; assay type: cell-based; conditions: 24 hours of treatment, mean of two independent experiments
Description: (§1) The SH-SY5Y human neuroblastoma cell line obtained purchased from ECACC (The European Collection of Authenticated Cell Cultures) was cultivated in Dulbecco's modified Eagle's Medium and Ham's F12 Nutrient Mixture (DMEM:F-12, 1:1), supplemented with 10% fetal bovine serum (FBS) and 1% penicillin and streptomycin at 37° C. in a humidified atmosphere 5% CO2, 95% air in passage limit up to ECACC+20. The assay was performed in 96-well microplate with 7000 SH-SY5Y cells per well. Next day, SH-SY5Y underwent all-trans retinoic acid (ATRA)-differentiation for 48 h (ATRA 10 μM). After 48 h, old DMEM/F12 media was removed by fresh media containing tested compounds at 0.1, 1 and 10 μM concentrations for 24 h. The tested compounds were dissolved in DMSO were added into the medium. The maximum concentration of DMSO in media was kept below 0.1% (v/v). The cell viability was measured by Calcein AM (1 mg/ml ThermoFisher) viability assay. Solution of Calcein AM in PBS (0.75 μM) was pipetted to cells and incubated for 50 minutes. After that the fluorescence was measured at 488/517 nm (excitation/emission) using microplate reader Infinite M200 (TECAN). Calcein AM assay is based on the dye-intracellular-esterase cleavage of non-fluorescent dye (Calcein AM) by living cells to fluorescent dye (Calcein), while dyeing cells that lose such ability. The values in Table 4 show % of viability, relative to control of all tested compounds. The control (medium with DMSO, <0.1% (v/v)) was postulated as 100% viability (see the first line of the table).

[3] = test system: human neuron-like SH-SY5Y cells; assay: Neuroprotective effect on glutamate-induced oxidative damage, cell death by propidium iodide staining; assay type: cell-based; conditions: for Neuroprotective effect (% of control): co-treatment with 160 mM Glu for 24 h, difference between 160 mM Glu and co-treatment group means; for Neuroprotective effect compared with positive controls (R-LA, DFO): 160 mM Glu, 24 h
Description: Similarly, to the previous test the assay was performed in 96-well microplates with 20000 cells per well. Day after the seeding of cells, SH-SYSY underwent all-trans retinoic acid (ATRA)-differentiation for 48 h (ATRA 10 μM). […] […] After 24 h the cell death was quantified by propidium iodide staining according to literature (Stone et al. BMC Cell Biol. 2003, 4, 1) with modifications. In general, PI staining is associated with damaged cell membrane or presence of dying cells (Stone et al. BMC Cell Biol. 2003, 4, 1). Due to the loss of adherence, damaged or death cells were stained by PI solution directly in media at 1.5 μM final concentration and incubated at room temperature for 15-25 minutes at room temperature. PI stained cells were quantified at 535/617 nm (excitation/emission) by Infinite M200 Pro (Tecan) microplate reader. Cell death generated by 160 mM Glu was consider as 100% of cell death so that reduction in cell death (neuroprotective effect) was observed.

[4] = Calcein AM viability test on ATRA-differentiated neuron-like SH-SY5Y cells; assay type: cell-based, human; conditions: human, ATRA-differentiated neuron-like SH-SY5Y neuroblastoma cells; 1 μM, 24 hours of treatment, mean of two independent experiments; read-out: Viability (% of DMSO control)
Description: as §1

[5] = as above; assay type: cell-based; conditions: human, ATRA-differentiated neuron-like SH-SY5Y neuroblastoma cells, 24 hours of treatment, mean of two independent experiments, read-out: Viability (% of DMSO control)

| Structure (SMILES) | Superoxide radical formation (% of 160 mM glutamate control) ([1]; 1 μM) [%] | Superoxide radical formation (% of 160 mM glutamate control) ([1]; 10 μM) [%] | Viability (% of DMSO control) ([2]; 0.1 μM) | Viability (% of DMSO control) ([2]; 1 μM) | Viability (% of DMSO control) ([2]; 10 μM) | Neuroprotective effect (% of control) ([3]; 1 μM) | Neuroprotective effect compared with positive controls (R-LA, DFO) ([3]; 10 μM) | Neuroprotective effect (% of control) ([3]; 10 μM) | Superoxide radical formation (% of 160 mM glutamate control) ([1]; 100 μM) [%] | viability at 24 h, 1 µM [4] [%] | viability at 24 h, 5 µM ([5]; 5 μM) [%] | viability at 24 h, 50 µM ([5]; 50 μM) [%] | Neuroprotective effect (% of control) ([3]; 100 μM) | Superoxide radical formation (% of 160 mM glutamate control) ([1]; 5 μM) [%] | Superoxide radical formation (% of 160 mM glutamate control) ([1]; 50 μM) [%] | Neuroprotective effect (% of control) ([3]; 50 μM) |
| --- | --- | --- | --- | --- | --- | --- | --- | --- | --- | --- | --- | --- | --- | --- | --- | --- |
| CC[C@@H](C)[C@H]1CC[C@H]2[C@@H]3CC(=O)[C@H]4C[C@H](O)[C@H](O)C[C@]4(C)[C@H]3CC[C@]12C [Compound 6] | 85.36 | 80.19 | 101.30 % of DMSO control | 104.80 % of DMSO control | 122.10 % of DMSO control | 15.00 % of control | double neuroprotective effect than R-LA | 33.70 % of control | – | – | – | – | – | – | – | – |
| CCC[C@@H](C)[C@H]1CC[C@H]2[C@@H]3CC(=O)[C@H]4C[C@H](O)[C@H](O)C[C@]4(C)[C@H]3CC[C@]12C [Compound 15] | 98.27 | 85.61 | 98.20 % of DMSO control | 106.40 % of DMSO control | 120.60 % of DMSO control | – | double neuroprotective effect than R-LA | 30.08 % of control | – | – | – | – | – | – | – | – |
| CCCC[C@@H](C)[C@H]1CC[C@H]2[C@@H]3CC(=O)[C@H]4C[C@H](O)[C@H](O)C[C@]4(C)[C@H]3CC[C@]12C [Compound 30] | 84.54 | 81.08 | 99.41 % of DMSO control | 102.30 % of DMSO control | 104.70 % of DMSO control | – | – | 23.17 % of control | – | – | – | – | – | – | – | – |
| CCCCC[C@@H](C)[C@H]1CC[C@H]2[C@@H]3CC(=O)[C@H]4C[C@H](O)[C@H](O)C[C@]4(C)[C@H]3CC[C@]12C [Compound 57] | 93.34 | 83.99 | 105.90 % of DMSO control | 108.90 % of DMSO control | 117.10 % of DMSO control | 15.99 % of control | – | 24.88 % of control | – | – | – | – | – | – | – | – |
| CC(C)CCC[C@@H](C)[C@H]1CC[C@H]2[C@@H]3CC(=O)[C@H]4C[C@H](O)[C@H](O)C[C@]4(C)[C@H]3CC[C@]12C [Compound 111] | 89.17 | 80.21 | 106.90 % of DMSO control | 107.80 % of DMSO control | 109.90 % of DMSO control | – | – | 26.52 % of control | – | – | – | – | – | – | – | – |
| CC(=O)N(O)CCCCCNC(=O)CCC(=O)N(O)CCCCCNC(=O)CCC(=O)N(O)CCCCCN [DFO, deferoxamine, reference compound] | – | 87.06 | – | – | – | – | – | 19.94 % of control | 92.61 | 106 | 106 | 110 | 23.55 % of control | – | – | – |
| O=C(O)CCCC[C@@H]1CCSS1 [R-LA, R-lipoic acid, reference compound] | – | – | – | – | – | – | – | – | – | – | – | – | – | 86.72 | 83.91 | 13.49 % of control |
